Measurements published in PubChem BioAssay (NCI).
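Tested at 5 concentrations; 48 h exposure; 96-well plates; endpoints linearly interpolated, else capped at highest concentration. TGI marks complete inhibition of growth.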

Key:
Assay in all cases: NCI tumour cell line growth inhibition, 48 h
[1] = test system: CCRF-CEM leukemia
[2] = test system: SK-MEL-5 melanoma
[3] = test system: A549 NSCLC
[4] = test system: SK-MEL-28 melanoma
[5] = test system: MDA-N
[6] = test system: HS 578T breast
[7] = test system: NCI-H460 lung
[8] = test system: OVCAR-4 ovarian
[9] = test system: DU-145 prostate
[10] = test system: RXF 393 renal
[11] = test system: A498 renal
[12] = test system: U251 CNS
[13] = test system: NCI-H23 lung
[14] = test system: MCF7 breast
[15] = test system: NCI-H522 lung
[16] = test system: CAKI-1 renal
[17] = test system: LOX IMVI melanoma
[18] = test system: KM12 colon
[19] = test system: HCT-15 colon
[20] = test system: SK-OV-3 ovarian
[21] = test system: HL-60(TB) leukemia
[22] = test system: K-562 leukemia
[23] = test system: UO-31 renal
[24] = test system: HCC-2998 colon
[25] = test system: IGROV1 ovarian
[26] = test system: RPMI-8226 leukemia
[27] = test system: PC-3 prostate
[28] = test system: HOP-62 NSCLC
[29] = test system: SF-268 CNS
[30] = test system: MDA-MB-435
[31] = test system: OVCAR-5 ovarian
[32] = test system: ACHN renal
[33] = test system: EKVX NSCLC
[34] = test system: SN12C renal
[35] = test system: UACC-62 melanoma
[36] = test system: MALME-3M melanoma
[37] = test system: SK-MEL-2 melanoma
[38] = test system: SF-539 CNS
[39] = test system: NCI/ADR-RES ovarian
[40] = test system: MOLT-4 leukemia
[41] = test system: 786-0 renal
[42] = test system: SR leukemia
[43] = test system: SNB-19 CNS
[44] = test system: OVCAR-8 ovarian
[45] = test system: SW-620 colon
[46] = test system: NCI-H226 lung
[47] = test system: TK-10 renal
[48] = test system: HT29 colon
[49] = test system: M14 melanoma
[50] = test system: T-47D breast
[51] = test system: MDA-MB-231 breast
[52] = test system: UACC-257 melanoma
[53] = test system: COLO 205 colon
[54] = test system: HCT-116 colon
[55] = test system: HOP-92 NSCLC
[56] = test system: SNB-75 CNS
[57] = test system: OVCAR-3 ovarian
[58] = test system: BT-549 breast
[59] = test system: SF-295 CNS

Question: With `CCOP1(=O)CC(C)=C(Cl)C(O)C1` (stereo unspecified) as the compound, how does the TGI [1] read?
Answer: The TGI was > 100 µM.

Question: What about the TGI [2] of the same compound?
Answer: The TGI was > 100 µM.

Question: And the TGI [3]?
Answer: Its TGI is > 100 µM.

Question: What about the TGI [4] of the same compound?
Answer: Its TGI is > 100 µM.

Question: And the TGI [5]?
Answer: Its TGI is > 100 µM.

Question: And the TGI [6]?
Answer: Its TGI is > 100 µM.

Question: And the TGI [7]?
Answer: Its TGI is > 100 µM.

Question: What about the TGI [8] of the same compound?
Answer: The TGI was > 100 µM.

Question: What about the TGI [9] of the same compound?
Answer: The TGI was > 100 µM.

Question: What about the TGI [10] of the same compound?
Answer: The TGI was > 100 µM.

Question: And the TGI [11]?
Answer: Its TGI is > 100 µM.

Question: And the TGI [12]?
Answer: The TGI was > 100 µM.

Question: What about the TGI [13] of the same compound?
Answer: Its TGI is > 100 µM.

Question: What about the TGI [14] of the same compound?
Answer: Its TGI is > 100 µM.

Question: What about the TGI [15] of the same compound?
Answer: Its TGI is > 100 µM.

Question: What about the TGI [16] of the same compound?
Answer: The TGI was > 100 µM.

Question: And the TGI [17]?
Answer: The TGI was > 100 µM.

Question: What about the TGI [18] of the same compound?
Answer: The TGI was > 100 µM.

Question: And the TGI [19]?
Answer: The TGI was > 100 µM.

Question: What about the TGI [20] of the same compound?
Answer: The TGI was > 100 µM.

Question: And the TGI [21]?
Answer: Its TGI is > 100 µM.

Question: What about the TGI [22] of the same compound?
Answer: Its TGI is > 100 µM.

Question: And the TGI [23]?
Answer: Its TGI is > 100 µM.

Question: And the TGI [24]?
Answer: The TGI was > 100 µM.

Question: And the TGI [25]?
Answer: The TGI was > 100 µM.

Question: And the TGI [26]?
Answer: The TGI was > 100 µM.

Question: And the TGI [27]?
Answer: The TGI was > 100 µM.

Question: What about the TGI [28] of the same compound?
Answer: The TGI was > 100 µM.

Question: And the TGI [29]?
Answer: The TGI was > 100 µM.

Question: And the TGI [30]?
Answer: Its TGI is > 100 µM.

Question: What about the TGI [31] of the same compound?
Answer: Its TGI is > 100 µM.

Question: What about the TGI [32] of the same compound?
Answer: The TGI was > 100 µM.

Question: What about the TGI [33] of the same compound?
Answer: The TGI was > 100 µM.

Question: And the TGI [34]?
Answer: Its TGI is > 100 µM.

Question: What about the TGI [35] of the same compound?
Answer: The TGI was > 100 µM.

Question: And the TGI [36]?
Answer: Its TGI is > 100 µM.

Question: What about the TGI [37] of the same compound?
Answer: Its TGI is > 100 µM.

Question: What about the TGI [38] of the same compound?
Answer: Its TGI is > 100 µM.

Question: What about the TGI [39] of the same compound?
Answer: The TGI was > 100 µM.

Question: And the TGI [40]?
Answer: The TGI was > 100 µM.

Question: What about the TGI [41] of the same compound?
Answer: The TGI was > 100 µM.

Question: What about the TGI [42] of the same compound?
Answer: Its TGI is > 100 µM.

Question: And the TGI [43]?
Answer: The TGI was > 100 µM.

Question: And the TGI [44]?
Answer: Its TGI is > 100 µM.

Question: And the TGI [45]?
Answer: Its TGI is > 100 µM.

Question: And the TGI [46]?
Answer: The TGI was > 100 µM.

Question: What about the TGI [47] of the same compound?
Answer: The TGI was > 100 µM.

Question: What about the TGI [48] of the same compound?
Answer: The TGI was > 100 µM.

Question: And the TGI [49]?
Answer: The TGI was > 100 µM.

Question: What about the TGI [50] of the same compound?
Answer: The TGI was > 100 µM.

Question: And the TGI [51]?
Answer: Its TGI is > 100 µM.

Question: What about the TGI [52] of the same compound?
Answer: Its TGI is > 100 µM.

Question: What about the TGI [53] of the same compound?
Answer: Its TGI is > 100 µM.

Question: What about the TGI [54] of the same compound?
Answer: The TGI was > 100 µM.

Question: What about the TGI [55] of the same compound?
Answer: The TGI was > 100 µM.

Question: What about the TGI [56] of the same compound?
Answer: The TGI was > 100 µM.

Question: What about the TGI [57] of the same compound?
Answer: The TGI was > 100 µM.

Question: And the TGI [58]?
Answer: The TGI was > 100 µM.

Question: And the TGI [59]?
Answer: Its TGI is > 100 µM.

Question: For `CCOC(=O)c1sc2nc(SC)nc3c2c1NCN3c1ccc2c(c1)OCO2`, which TGI [1] is on record?
Answer: Its TGI is 32.9 µM.

Question: And the TGI [2]?
Answer: Its TGI is > 100 µM.

Question: What about the TGI [3] of the same compound?
Answer: The TGI was 25.4 µM.

Question: And the TGI [4]?
Answer: Its TGI is > 100 µM.

Question: And the TGI [5]?
Answer: Its TGI is > 100 µM.

Question: What about the TGI [6] of the same compound?
Answer: The TGI was 8.07 µM.

Question: And the TGI [8]?
Answer: Its TGI is 26.4 µM.

Question: And the TGI [9]?
Answer: The TGI was 39.7 µM.

Question: And the TGI [10]?
Answer: The TGI was 10.3 µM.

Question: What about the TGI [11] of the same compound?
Answer: Its TGI is 87.4 µM.

Question: What about the TGI [12] of the same compound?
Answer: Its TGI is 23.1 µM.

Question: And the TGI [13]?
Answer: Its TGI is > 100 µM.

Question: What about the TGI [14] of the same compound?
Answer: Its TGI is > 100 µM.

Question: What about the TGI [15] of the same compound?
Answer: The TGI was 98.1 µM.

Question: What about the TGI [16] of the same compound?
Answer: The TGI was > 100 µM.

Question: What about the TGI [17] of the same compound?
Answer: Its TGI is > 100 µM.

Question: What about the TGI [18] of the same compound?
Answer: Its TGI is > 100 µM.

Question: And the TGI [19]?
Answer: Its TGI is > 100 µM.

Question: And the TGI [20]?
Answer: Its TGI is 24.2 µM.

Question: What about the TGI [21] of the same compound?
Answer: The TGI was > 100 µM.

Question: What about the TGI [22] of the same compound?
Answer: Its TGI is > 100 µM.

Question: What about the TGI [23] of the same compound?
Answer: The TGI was 69.8 µM.

Question: What about the TGI [24] of the same compound?
Answer: The TGI was > 100 µM.

Question: What about the TGI [25] of the same compound?
Answer: The TGI was > 100 µM.

Question: And the TGI [26]?
Answer: The TGI was > 100 µM.

Question: What about the TGI [27] of the same compound?
Answer: Its TGI is 37.2 µM.

Question: And the TGI [28]?
Answer: Its TGI is 18.7 µM.

Question: What about the TGI [29] of the same compound?
Answer: The TGI was 18 µM.

Question: What about the TGI [30] of the same compound?
Answer: Its TGI is 52.7 µM.

Question: And the TGI [31]?
Answer: Its TGI is > 100 µM.

Question: What about the TGI [32] of the same compound?
Answer: Its TGI is 26 µM.

Question: And the TGI [33]?
Answer: Its TGI is > 100 µM.

Question: And the TGI [34]?
Answer: The TGI was > 100 µM.

Question: And the TGI [35]?
Answer: Its TGI is 31.8 µM.

Question: What about the TGI [36] of the same compound?
Answer: The TGI was 53.2 µM.

Question: And the TGI [37]?
Answer: Its TGI is 58.8 µM.

Question: And the TGI [38]?
Answer: Its TGI is 51.1 µM.

Question: What about the TGI [39] of the same compound?
Answer: The TGI was 30.8 µM.

Question: And the TGI [40]?
Answer: The TGI was 78.8 µM.

Question: And the TGI [41]?
Answer: Its TGI is 15 µM.

Question: What about the TGI [42] of the same compound?
Answer: Its TGI is > 100 µM.

Question: What about the TGI [43] of the same compound?
Answer: Its TGI is 31.2 µM.

Question: What about the TGI [44] of the same compound?
Answer: The TGI was 20.1 µM.

Question: And the TGI [45]?
Answer: Its TGI is 45.1 µM.

Question: What about the TGI [46] of the same compound?
Answer: The TGI was > 100 µM.

Question: What about the TGI [47] of the same compound?
Answer: Its TGI is 43.7 µM.

Question: What about the TGI [48] of the same compound?
Answer: Its TGI is > 100 µM.

Question: What about the TGI [49] of the same compound?
Answer: The TGI was 71.2 µM.

Question: And the TGI [50]?
Answer: The TGI was > 100 µM.

Question: What about the TGI [51] of the same compound?
Answer: Its TGI is 43 µM.

Question: What about the TGI [52] of the same compound?
Answer: The TGI was > 100 µM.

Question: What about the TGI [53] of the same compound?
Answer: Its TGI is > 100 µM.

Question: And the TGI [54]?
Answer: The TGI was > 100 µM.

Question: What about the TGI [55] of the same compound?
Answer: The TGI was 32.4 µM.

Question: And the TGI [57]?
Answer: Its TGI is 50 µM.

Question: And the TGI [58]?
Answer: The TGI was > 100 µM.

Question: What about the TGI [59] of the same compound?
Answer: Its TGI is 53.3 µM.
